# Laboratory results reported in patent US5688960A, “Substituted oximes, hydrazones and olefins useful as neurokinin antagonists” (Schering Corporation, priority 1996, dated 1997).
# How the values were obtained:
# [1] = target: T1, human neurokinin 1 (NK1) receptor (Homo sapiens, UniProt P25103); assay: Neurokinin receptor binding assay, [3H]-Substance P competition, CHO cell membranes (NK1); settings: [3H]-Substance P 0.8 nM
# T1 construct: expressed in transfected cells; host or cells: Chinese Hamster ovary (CHO) cells; membranes
# T1 sequence (P25103 whole entry): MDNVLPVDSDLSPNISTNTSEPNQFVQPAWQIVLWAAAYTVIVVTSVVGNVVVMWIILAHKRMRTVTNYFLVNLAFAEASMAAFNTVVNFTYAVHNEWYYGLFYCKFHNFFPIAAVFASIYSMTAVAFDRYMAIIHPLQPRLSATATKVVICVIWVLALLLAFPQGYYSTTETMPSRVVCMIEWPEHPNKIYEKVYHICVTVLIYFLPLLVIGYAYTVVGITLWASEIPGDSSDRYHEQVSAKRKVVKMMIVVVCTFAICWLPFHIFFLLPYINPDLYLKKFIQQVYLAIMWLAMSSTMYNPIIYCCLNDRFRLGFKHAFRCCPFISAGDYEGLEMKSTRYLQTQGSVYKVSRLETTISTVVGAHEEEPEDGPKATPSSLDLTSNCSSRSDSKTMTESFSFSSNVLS
# Procedure: (§1) Chinese Hamster ovary (CHO) cells transfected with the coding regions for the human neurokinin 1 (NK1) of the human neurokinin 2 (NK2) receptors are grown in Dulbecco's minimal essential medium supplemented with 10% fetal calf serum, 0.1 mM non-essential amino acids, 2 mM glutamine, 100 units/ml of penicillin and streptomycin, and 0.8 mg of G418/ml at 37° C. in a humidified atmosphere containing 5% CO2.
# (§2) Cells are detached from T-175 flasks with a sterile solution containing 5 mM EDTA in phosphate buffered saline. Cells are harvested by centrifugation and washed in RPMI media at […] for 5 minutes. […]
# (§3) To assay receptor binding, 50 μl of [^3 H]-Substance P (9-Sar, 11-Met) (specific activity 41 Ci/mmol) (Dupont-NEN) (0.8 nM for the NK-1 assay) or [^3 H]-Neurokinin A (specific activity 114 Ci/mmole) (Zenca) (1.0 nM for the NK-2 assay) is added to tubes containing buffer (50 mM Tris-HCl (pH 7.4) with 1 mM MnCl2 and 0.2% Bovine Serum Albumin) and either DMSO or test compound. […] Filters are added to 6 mls of Ready-Safe liquid scintillation cocktail and quantified by liquid scintillation spectrometry in a LKB 1219 RackBeta counter. Non-specific binding is determined by the addition of either 1 μM of CP-99994 (NK-1) or 1 μM SR-48968 (NK-2) (both synthesized by the chemistry department of Schering-Plough Research Institute). […]
# [2] = target: T2, human neurokinin 2 (NK2) receptor (Homo sapiens, UniProt P21452); assay: Neurokinin receptor binding assay, [3H]-Neurokinin A competition, CHO cell membranes (NK2); settings: [3H]-Neurokinin A 1.0 nM
# T2 construct: expressed in transfected cells; host or cells: Chinese Hamster ovary (CHO) cells; membranes
# T2 sequence (P21452 1-398): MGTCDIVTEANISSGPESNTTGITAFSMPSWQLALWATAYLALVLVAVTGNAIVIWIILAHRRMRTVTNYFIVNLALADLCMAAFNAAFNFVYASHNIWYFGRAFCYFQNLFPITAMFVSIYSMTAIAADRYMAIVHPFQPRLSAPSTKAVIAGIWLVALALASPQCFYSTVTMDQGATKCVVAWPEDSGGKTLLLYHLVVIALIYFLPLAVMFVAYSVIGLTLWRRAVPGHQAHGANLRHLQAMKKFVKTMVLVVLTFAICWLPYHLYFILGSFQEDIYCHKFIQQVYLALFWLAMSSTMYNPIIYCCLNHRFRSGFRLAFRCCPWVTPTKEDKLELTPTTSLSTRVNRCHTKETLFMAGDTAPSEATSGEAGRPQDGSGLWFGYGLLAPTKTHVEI
# Procedure: as §1, §2, §3
Structure (SMILES),Ki [1],Ki [2]
OCCON=C(COCc1cc(C(F)(F)F)cc(C(F)(F)F)c1)C(CCN1CCC(O)(c2ccccc2)CC1)c1csc2ccccc12 (stereo not shown) [Example 4D],1.8 nM,23 nM
CON=C(CN(C)C(=O)c1cc(C)cc(C)c1)C(CCN1CCC(O)(c2ccccc2)CC1)c1csc2ccccc12 (stereo not shown) [Example 7B],0.65 nM,4.5 nM
